From patent US20060004002A1 (priority 2004, published 2006)
pIC50: −log10 of the molar value.

Molecular target: T1, Recombinant human Src (Homo sapiens, UniProt P12931)
T1 construct: made in house; host or cells: baculovirus-insect cell system
Experiment: Src tyrosine kinase activity assay with poly E4Y and 32P-ATP
Format: biochemical
Details: poly E4Y, 32P-ATP; NI = no inhibition; read-out: IC50 Value Src
Protocol: Recombinant human Src was expressed using the baculovirus-insect cell system and purified as published (Budde et al., 1993 and 2000). Recombinant Csk and the FGF receptor (FGFr) were expressed as […] fusion proteins using the pGEX expression vector and E. coli, and purified as described (Sun & Budde, 1995).
The tyrosine kinase activity of Src, Csk and FGFr was determined using poly E4Y and ^32P-ATP. Briefly, enzymes were assayed in a reaction mixture […] consisting of 0.15 M EPPS-NaOH (pH 8.0) with 6 mM MgCl2, 0.2 mM γ^32P-ATP (0.2-0.4 mCi/μmol), 10% glycerol, 0.1% Triton X-100, and poly E4Y. Poly E4Y is a synthetic peptide whose phosphorylation is measured in this assay by the addition of the radioactively labeled phosphate from the ATP (Budde et al., 1995). […] When ATP was varied (0, 50, 100 and 250 μM), poly E4Y was kept constant at 150 μg/ml.

pIC50	Compound
9.00	CCOc1ccccc1-c1sc2c(NN=Cc3cc(OC)c(O)c(OC)c3)ncnc2c1C [Compound 65, 3,5-Dimethoxy-4-hydroxybenzaldehyde (6-(2-ethoxyphenyl)-7-methylthieno[3,2-d]pyrimidin-4-yl)hydrazone]
7.26	CCOc1cc(F)ccc1-c1sc2c(NN=Cc3cccs3)ncnc2c1CO [Compound 107, 2-Thiophenecarboxaldehyde (6-(2-ethoxy-4-fluorophenyl)-7-hydroxymethylthieno[3,2-d]pyrimidin-4-yl)hydrazone]
7.62	4-Carboxybenzaldehyde (6-(4-aminomethyl)phenyl-7-methylthieno[3,2-d]pyrimidin-4-yl)hydrazone [Compound 2]
9.54	CCOc1ccccc1-c1sc2c(NN=Cc3ccc(C(=O)O)cc3)ncnc2c1O [Compound 74, 4-Carboxybenzaldehyde (6-(2-ethoxyphenyl)-7-hydroxythieno[3,2-d]pyrimidin-4-yl)hydrazone]
5.41	Cc1c(-c2ccccc2OCc2ccccc2)sc2c(NN=Cc3cccnc3)ncnc12 [Compound 82, 3-Pyridinecarboxaldehyde (6-(2-benzyloxyphenyl)-7-methylthieno[3,2-d]pyrimidin-4-yl)hydrazone]
8.33	CCOc1ccccc1-c1sc2c(NN=Cc3cccc(F)c3)ncnc2c1C#N [Compound 139, 3-Fluorobenzaldehyde (7-cyano-6-(2-ethoxyphenyl)thieno[3,2-d]pyrimidin-4-yl)hydrazone]
7.04	Cc1c(-c2cccc(C(N)=O)c2)sc2c(NN=Cc3cccnc3)ncnc12 [Compound 21, 3-Pyridinecarboxaldehyde (6-(3-aminocarbonylphenyl)-7-methylthieno[3,2-d]pyrimidin-4-yl)hydrazone]
8.06	COc1ccc(C=NNc2ncnc3c(C)c(-c4ccc(N)cc4)sc23)cc1O [Compound 10, 3-Hydroxy-4-methoxybenzaldehyde (6-(4-aminophenyl)-7-methylthieno[3,2-d]pyrimidin-4-yl)hydrazone]
7.82	COc1ccc(C=NNc2ncnc3c(C)c(-c4ccc(O)cc4)sc23)cc1O [Compound 38, 3-Hydroxy-4-methoxybenzaldehyde (6-(4-hydroxyphenyl)-7-methylthieno[3,2-d]pyrimidin-4-yl)hydrazone]
6.26	COc1ccc(C=NNc2ncnc3c(C)c(CNc4ccccc4)sc23)cc1O [Compound 18]
5.85	Cc1c(-c2cccc(C#N)c2)sc2c(NN=Cc3cccs3)ncnc12 [Compound 28, 2-Thiophenecarboxaldehyde (6-(3-cyanophenyl)-7-methylthieno[3,2-d]pyrimidin-4-yl)hydrazone]
8.07	CCOc1cc(F)ccc1-c1sc2c(NN=Cc3cccs3)ncnc2c1C#N [compound 108]
8.31	CCOc1cc(F)ccc1-c1sc2c(NN=Cc3ccc(OC)c(O)c3)ncnc2c1C [Compound 57, 3-Hydroxy-4-methoxybenzaldehyde (6-(2-ethoxy-4-fluorophenyl)-7-methylthieno[3,2-d]pyrimidin-4-yl)hydrazone]
8.62	CCOc1ccccc1-c1sc2c(NN=Cc3ccc(NC(C)=O)cc3)ncnc2c1O [Compound 132, 4-Acetamidobenzaldehyde (6-(2-ethoxyphenyl)-7-hydroxythieno[3,2-d]pyrimidin-4-yl)hydrazone]
8.49	CCOc1ccccc1-c1sc2c(NN=Cc3cccc(C(=O)O)c3)ncnc2c1C#N [compound 114]
7.72	Cc1c(-c2ccc(N)cc2)sc2c(NN=Cc3cccs3)ncnc12 [Compound 9, 2-Thiophenecarboxaldehyde (6-(4-aminophenyl)-7-methylthieno[3,2-d]pyrimidin-4-yl)hydrazone]
8.55	CCOc1ccccc1-c1sc2c(NN=Cc3ccc(C)s3)ncnc2c1O [Compound 128, 5-Methyl-2-thiophenecarboxaldehyde (6-(2-ethoxyphenyl)-7-hydroxythieno[3,2-d]pyrimidin-4-yl)hydrazone]
9.52	CCOc1cc(F)ccc1-c1sc2c(NN=Cc3cc(OC)c(OCCN(CC)CC)c(OC)c3)ncnc2c1C [Compound 160, 4-(2-Diethylamino-ethoxy)-3,5-dimethoxy-benzaldehyde (6-(2-ethoxy-4-fluorophenyl)-7-methylthieno[3,2-d]pyrimidin-4-yl)hydrazone]
7.55	CCOc1ccccc1-c1sc2c(NN=Cc3c[nH]c(=O)[nH]c3=O)ncnc2c1O [Compound 113, 2,4-Dioxo-1,2,3,4-tetrahydro-pyrimidine-5-carbaldehyde (6-(2-ethoxyphenyl)-7-hydroxythieno[3,2-d]pyrimidin-4-yl)hydrazone]

pIC50	Compound
7.54	CCCOc1ccccc1-c1sc2c(NN=Cc3ccc(OC)c(O)c3)ncnc2c1C [Compound 83, 3-Hydroxy-4-methoxybenzaldehyde (7-methyl-6-(2-propoxyphenyl)thieno[3,2-d]pyrimidin-4-yl)hydrazone]
5.85	CCOc1ccccc1-c1sc2c(NN=Cc3ccccc3Cl)ncnc2c1C [Compound 77, 2-Chlorobenzaldehyde (6-(2-ethoxyphenyl)-7-methylthieno[3,2-d]pyrimidin-4-yl)hydrazone]
7.80	Cc1c(-c2cccc(CN)c2)sc2c(NN=Cc3cccnc3)ncnc12 [Compound 6, 3-Pyridinecarboxaldehyde (6-(3-aminomethyl)phenyl-7-methylthieno[3,2-d]pyrimidin-4-yl)hydrazone]
7.66	CCOc1ccccc1-c1sc2c(NN=Cc3ccc(C(=O)OC)cc3)ncnc2c1C#N [compound 118]
8.31	Cc1c(-c2cccc(N)c2)sc2c(NN=Cc3cccnc3)ncnc12 [Compound 11, 3-Pyridinecarboxaldehyde (6-(3-aminophenyl)-7-methylthieno[3,2-d]pyrimidin-4-yl)hydrazone]
7.27	Cc1c(-c2cccc(C(N)=O)c2)sc2c(NN=Cc3cccs3)ncnc12 [Compound 20, 2-Thiophenecarboxaldehyde (6-(3-aminocarbonylphenyl)-7-methylthieno[3,2-d]pyrimidin-4-yl)hydrazone]
9.25	CCOc1cc(F)ccc1-c1sc2c(NN=Cc3cc(OC)c(OCCN(CC)CC)c(OC)c3)ncnc2c1O [Compound 159, 4-(2-Diethylamino-ethoxy)-3,5-dimethoxy-benzaldehyde (6-(2-ethoxy-4-fluorophenyl)-7-hydroxythieno[3,2-d]pyrimidin-4-yl)hydrazone]
8.92	CCOc1ccccc1-c1sc2c(NN=Cc3cc(O)c(OC)c(OC)c3)ncnc2c1C [Compound 64, 3,4-Dimethoxy-5-hydroxybenzaldehyde (6-(2-ethoxyphenyl)-7-methylthieno[3,2-d]pyrimidin-4-yl)hydrazone]
7.70	COc1ccc(C=NNc2ncnc3c(C)c(-c4ccc(C(N)=O)cc4)sc23)cc1O [Compound 23, 3-Hydroxy-4-methoxybenzaldehyde (6-(4-aminocarbonylphenyl)-7-methylthieno[3,2-d]pyrimidin-4-yl)hydrazone]
9.47	CCOc1ccccc1-c1sc2c(NN=Cc3cc(OC)c(O)c(OC)c3)ncnc2c1C#N [compound 94]
8.23	CCOc1ccccc1-c1sc2c(NN=Cc3ccc(C(=O)OC)cc3)ncnc2c1O [Compound 120, Methyl 4-formyl benzoate (6-(2-ethoxyphenyl)-7-hydroxythieno[3,2-d]pyrimidin-4-yl)hydrazone]
7.55	CCOc1ccccc1-c1sc2c(NN=Cc3cccs3)ncnc2c1CO [Compound 71, 2-Thiophenecarboxaldehyde (6-(2-ethoxyphenyl)-7-hydroxymethylthieno[3,2-d]pyrimidin-4-yl)hydrazone]
8.21	CCOc1ccccc1-c1sc2c(NN=Cc3ccc(N(C)C)cc3)ncnc2c1O [Compound 133, 4-N,N-Dimethylaminobenzaldehyde (6-(2-ethoxyphenyl)-7-hydroxythieno[3,2-d]pyrimidin-4-yl)hydrazone]
9.51	CCOc1ccccc1-c1sc2c(NN=Cc3cc(Br)c(O)c(OC)c3)ncnc2c1C#N [compound 87]
7.85	COc1ccc(C=NNc2ncnc3c(C)c(-c4cccc(C(N)=O)c4)sc23)cc1O [Compound 19, 3-Hydroxy-4-methoxybenzaldehyde (6-(3-aminocarbonylphenyl)-7-methylthieno[3,2-d]pyrimidin-4-yl)hydrazone]
6.89	CCOc1ccccc1-c1sc2c(NN=Cc3ccc(N(C)C)cc3)ncnc2c1C#N [compound 131]
7.59	COc1ccc(C=NNc2ncnc3c(C)c(-c4cccc(CN5CCOCC5)c4)sc23)cc1O [Compound 17, 3-Hydroxy-4-methoxybenzaldehyde (7-methyl-6-(3-(morpholin-4-yl)methyl)phenylthieno[3,2-d]pyrimidin-4-yl)hydrazone]
7.39	Cc1c(-c2cccc(C(N)=O)c2)sc2c(NN=Cc3ccc(C(=O)O)cc3)ncnc12 [Compound 22, 4-Carboxybenzaldehyde (6-(3-aminocarbonylphenyl)-7-methylthieno[3,2-d]pyrimidin-4-yl)hydrazone]
7.89	Cc1c(-c2ccc(C(N)=O)cc2)sc2c(NN=Cc3cccnc3)ncnc12 [Compound 24, 3-Pyridinecarboxaldehyde (6-(4-aminocarbonylphenyl)-7-methylthieno[3,2-d]pyrimidin-4-yl)hydrazone]

Compound	pIC50
CCOc1ccccc1-c1sc2c(NN=Cc3ccc(O)c(OC)c3)ncnc2c1C [Compound 55]	8.48
